Measurements published in patent US8609391B2, “Mannose-6-phosphate isomerase, mutant thereof, and use thereof” (Konkuk University Industrial Cooperation Corp., priority 2009, dated 2013).
Where a chain is given by its changes, count along the chain named. Names may count otherwise.

Experiments:
[1] = biological target: T1, Thermus thermophilus mannose-6-phosphate isomerase, wild type, Sequence No. 1 (gene SEQ ID NO: 3) (Thermus thermophilus, UniProt Q5SIM4); assay: Kinetic parameters to L-ribulose, wild enzyme; assay type: biochemical; details: 75° C., pH 7.0, 0.5 mM Cu^2+
T1 sequence (Q5SIM4 1-254): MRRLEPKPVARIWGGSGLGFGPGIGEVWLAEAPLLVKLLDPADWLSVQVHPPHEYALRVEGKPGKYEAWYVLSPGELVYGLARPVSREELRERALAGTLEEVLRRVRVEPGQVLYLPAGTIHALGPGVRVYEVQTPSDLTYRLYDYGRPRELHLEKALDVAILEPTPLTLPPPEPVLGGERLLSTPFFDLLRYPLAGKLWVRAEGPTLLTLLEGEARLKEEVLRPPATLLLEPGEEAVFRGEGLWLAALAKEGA
Method: (§1) The experiment for measuring and comparing specific activities of the mannose-6-isomerase and mutant enzyme to L-ribulose was performed.
(§2) The enzyme reaction was performed at 75° C. for 5 minutes using 50 mM PIPES buffer solution (pH 7.0) including 10 mM ribulose and the metal ion of 0.5 mM Cu^2+ and then again stopped by adding a final concentration of 200 mM hydrogen chloride. In the present invention, the enzyme activity was measured by using […] as a substrate, and one unit of the enzyme activity was defined as the amount of enzyme required to produce 1 nmole of L-Ribose per 1 minute at 75° C. and pH 7.0 for a smooth comparative analysis. In addition, when measuring the enzyme activity, the analysis of the concentrations of ribose and ribulose, and other sugars was performed by using Bio liquid chromatography (Bio-LC) system (DIONEX ICS-3000, Sunnylvale, Calif., USA) installed with CarboPacPA and an electrochemical detector. At this point, 200 mM sodium hydroxide (NaOH) was passed through the CarboPacPA column at the rate of 1 ml/min at 30° C.

[2] = biological target: T2, Thermus thermophilus mannose-6-phosphate isomerase (Sequence No. 1) variant R142Y (Thermus thermophilus, UniProt Q5SIM4, R142Y); assay: Kinetic parameters to L-ribulose, R142Y mutant; assay type: biochemical; details: 75° C., pH 7.0, 0.5 mM Cu^2+
T2 construct: site-directed mutant
T2 sequence (Q5SIM4 entry or part of it R142Y): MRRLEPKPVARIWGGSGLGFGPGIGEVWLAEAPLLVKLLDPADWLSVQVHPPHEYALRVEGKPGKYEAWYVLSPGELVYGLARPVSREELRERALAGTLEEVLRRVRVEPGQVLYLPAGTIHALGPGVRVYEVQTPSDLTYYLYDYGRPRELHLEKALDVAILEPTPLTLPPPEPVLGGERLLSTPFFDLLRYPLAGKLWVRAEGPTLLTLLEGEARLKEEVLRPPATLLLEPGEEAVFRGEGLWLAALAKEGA
Method: as §1, §2

[3] = biological target: T3, Thermus thermophilus mannose-6-phosphate isomerase (Sequence No. 1) variant R142N (gene SEQ ID NO: 5) (Thermus thermophilus, UniProt Q5SIM4, R142N); assay: Kinetic parameters to L-ribulose, R142N mutant; assay type: biochemical; details: 75° C., pH 7.0, 0.5 mM Cu^2+
T3 construct: site-directed mutant
T3 sequence (Q5SIM4 1-254 R142N): T1 sequence (Q5SIM4 1-254) with R142N
Method: as §1, §2

[4] = biological target: T4, Thermus thermophilus mannose-6-phosphate isomerase (Sequence No. 1) variant R142K (Thermus thermophilus, UniProt Q5SIM4, R142K); assay: Kinetic parameters to L-ribulose, R142K mutant; assay type: biochemical; details: 75° C., pH 7.0, 0.5 mM Cu^2+
T4 construct: site-directed mutant
T4 sequence (Q5SIM4 entry or part of it R142K): as the sequence (Q5SIM4 entry or part of it R142Y) above, with Y142K counted along it
Method: as §1, §2

[5] = biological target: T5, Thermus thermophilus mannose-6-phosphate isomerase (Sequence No. 1) variant R142E (Thermus thermophilus, UniProt Q5SIM4, R142E); assay: Kinetic parameters to L-ribulose, R142E mutant; assay type: biochemical; details: 75° C., pH 7.0, 0.5 mM Cu^2+
T5 construct: site-directed mutant
T5 sequence (Q5SIM4 entry or part of it R142E): as the sequence (Q5SIM4 entry or part of it R142Y) above, with Y142E counted along it
Method: as §1, §2

[6] = biological target: T6, Thermus thermophilus mannose-6-phosphate isomerase (Sequence No. 1) variant R142A (Thermus thermophilus, UniProt Q5SIM4, R142A); assay: Kinetic parameters to L-ribulose, R142A mutant; assay type: biochemical; details: 75° C., pH 7.0, 0.5 mM Cu^2+
T6 construct: site-directed mutant
T6 sequence (Q5SIM4 entry or part of it R142A): as the sequence (Q5SIM4 entry or part of it R142Y) above, with Y142A counted along it
Method: as §1, §2

[7] = substrate: O=C(CO)[C@@H](O)[C@@H](O)CO; assay: Kinetic parameters to L-ribulose, R142N mutant; assay type: biochemical, Thermus thermophilus; details: other: 75° C., pH 7.0, 0.5 mM Cu^2+
Method: as §1, §2

[8] = substrate: O=C(CO)[C@@H](O)[C@@H](O)CO; assay: Kinetic parameters to L-ribulose, wild enzyme; assay type: biochemical, Thermus thermophilus; details: other: 75° C., pH 7.0, 0.5 mM Cu^2+
Method: as §1, §2

`O=C(CO)[C@@H](O)[C@@H](O)CO` [L-ribulose] gave a kcat [1] of 50644 ± 709 s⁻¹, a kcat/Km [1] of 374000 ± 11000 M⁻¹ s⁻¹ and a kcat [2] of 56178 ± 865 s⁻¹. It also gave a kcat/Km [2] of 182000 ± 5000 M⁻¹ s⁻¹, a kcat [3] of 81063 ± 1329 s⁻¹ and a kcat/Km [3] of 579000 ± 20000 M⁻¹ s⁻¹. The “increase of catalytic efficiency as compared to the wild enzyme” value ([3]; ratio R142N / wild) was 1.5 fold, the kcat [4] was 68877 ± 964 s⁻¹ and the kcat/Km [4] was 302000 ± 9000 M⁻¹ s⁻¹. It also gave a kcat [5] of 32666 ± 536 s⁻¹, a kcat/Km [5] of 216000 ± 8000 M⁻¹ s⁻¹ and a kcat [6] of 64873 ± 908 s⁻¹. The kcat/Km [6] was 353000 ± 11000 M⁻¹ s⁻¹.

B1: Thermus thermophilus mannose-6-phosphate isomerase (Sequence No. 1) variant R142N (gene SEQ ID NO: 5) (Thermus thermophilus HB8; R142N) (protein)
chain: T1 sequence (Q5SIM4 1-254) with R142N
notes: site-directed mutant
B1 gave a kcat/Km [7] of 579000 M⁻¹ s⁻¹.

B2: Thermus thermophilus mannose-6-phosphate isomerase, wild type, Sequence No. 1 (gene SEQ ID NO: 3) (Thermus thermophilus HB8) (protein)
chain: T1 sequence (Q5SIM4 1-254)
For B2, the kcat/Km [8] was 374000 M⁻¹ s⁻¹.
